Among the data in ChEMBL document CHEMBL1146267, “2,6-Disubstituted N-arylsulfonyl piperidines as gamma-secretase inhibitors” (Bioorg Med Chem Lett, 2007) are IC50 values, retold here.

The assay has as its target Gamma-secretase. The experiment in a line: Inhibition of gamma secretase-mediated amyloid-beta peptid […]. Format: protein-complex assay, Homo sapiens.

As for `O=C(NCCCn1ccnc1)OCC1CCc2ccc(F)cc2N1S(=O)(=O)c1ccc(Cl)cc1` (configuration not stated), it took 0.27 µM to reach half-maximal inhibition (IC50).
`CC1CCC2CCCCC2N1S(=O)(=O)c1ccc(Cl)cc1` (configuration not stated) showed an IC50 of 2.5 µM.
The result for `O=C(OCC1CCc2ccc(F)cc2N1S(=O)(=O)c1ccc(Cl)cc1)N1CCCC1` (configuration not stated) reads 0.68 µM; that for `O=C(NCCCn1ccnc1)OCC1CCCCN1S(=O)(=O)c1ccc(Cl)cc1` (configuration not stated), 15.4 µM; that for `O=C(OC[C@H]1CCC[C@@H](c2cccc(F)c2)N1S(=O)(=O)c1ccc(Cl)cc1)N1CCC(N2CCCCC2)CC1` [listing 1 of 2 here], 0.003 µM.
As for `O=C(OC[C@H]1CCC[C@@H](c2cccc(F)c2)N1S(=O)(=O)c1ccc(Cl)cc1)N1CCC(N2CCCCC2)CC1` [listing 2 of 2 here], the IC50 turned out to be 0.083 µM.
The molecule `CC1CN(C2CCCCC2)CCN1C(=O)OC[C@H]1CCC[C@@H](c2ccccc2)N1S(=O)(=O)c1ccc(Cl)cc1` (mixture of isomers) came in with an IC50 of 0.071 µM.
As for `CC1CN(CC2CC2)CCN1C(=O)OC[C@H]1CCC[C@@H](c2ccccc2)N1S(=O)(=O)c1ccc(Cl)cc1` (mixture of isomers), the IC50 came to 0.037 µM.
Under `CC1CN(CC2CC2)CCN1C(=O)OC[C@H]1CCC[C@@H](c2cccc(F)c2)N1S(=O)(=O)c1ccc(Cl)cc1` (mixture of isomers) stands 0.026 µM; under `CC1CC(N2CCCCC2)CCN1C(=O)OC[C@H]1CCC[C@@H](c2cccc(F)c2)N1S(=O)(=O)c1ccc(Cl)cc1` (mixture of isomers), 0.013 µM.
Take `CC1CC(N2CCCCC2)CCN1C(=O)OC[C@H]1CCC[C@@H](c2cc(F)cc(F)c2)N1S(=O)(=O)c1ccc(Cl)cc1` (mixture of isomers): the IC50 amounted to 0.007 µM.
Molecule `C[C@@H]1CCC[C@H](COC(=O)N2CCC(N(C)C3CCN(C)CC3)CC2)N1S(=O)(=O)c1ccc(Cl)cc1` (racemic) had an IC50 of 0.219 µM.
With `C[C@@H]1CCC[C@H](COC(=O)N2CCC(N3CCCCC3)CC2)N1S(=O)(=O)c1ccc(Cl)cc1` (racemic), the IC50 worked out at 0.076 µM.
Molecule `CC[C@@H]1CCC[C@H](COC(=O)N2CCC(N(C)C3CCN(C)CC3)CC2)N1S(=O)(=O)c1ccc(Cl)cc1` (racemic) had an IC50 of 0.159 µM.
Under `O=C(OC[C@H]1CCC[C@@H](Cc2ccccc2)N1S(=O)(=O)c1ccc(Cl)cc1)N1CCC(N2CCCCC2)CC1` (racemic) stands 4.77 µM; under `O=C(OC[C@H]1CCC[C@@H](c2ccccc2F)N1S(=O)(=O)c1ccc(Cl)cc1)N1CCN(C2CCCCC2)CC1` (racemic), 0.017 µM; under `O=C(OC[C@H]1CCC[C@@H](c2cccc(F)c2)N1S(=O)(=O)c1ccc(Cl)cc1)N1CCN(C2CCCCC2)CC1` (racemic), 0.038 µM.
With `O=C(OC[C@H]1CCC[C@@H](c2cccc(F)c2)N1S(=O)(=O)c1ccc(Cl)cc1)N1CCC(N2CCCCC2)CC1` (racemic), the IC50 turned out to be 0.011 µM.
With `O=C(OC[C@H]1CCC[C@@H](c2cc(F)ccc2F)N1S(=O)(=O)c1ccc(Cl)cc1)N1CCN(C2CCCCC2)CC1` (racemic), it took 0.028 µM to reach half-maximal inhibition (IC50).
Molecule `O=C(OC[C@H]1CCC[C@@H](c2cc(F)cc(F)c2)N1S(=O)(=O)c1ccc(Cl)cc1)N1CCN(C2CCCCC2)CC1` (racemic) returned an IC50 of 0.036 µM.
Consider `O=C(OC[C@H]1CCC[C@@H](c2cc(F)cc(F)c2)N1S(=O)(=O)c1ccc(Cl)cc1)N1CCC(N2CCCCC2)CC1` (racemic), for which 0.004 µM corresponded to half-maximal inhibition (IC50).
Consider `O=C(OC[C@H]1CCC[C@@H](c2ccc(F)c(F)c2)N1S(=O)(=O)c1ccc(Cl)cc1)N1CCC(N2CCCCC2)CC1` (racemic), for which it took 0.008 µM to reach half-maximal inhibition (IC50).
`CN1CCC(N(C)C2CCN(C(=O)OC[C@H]3CCC[C@@H](Cc4ccccc4)N3S(=O)(=O)c3ccc(Cl)cc3)CC2)CC1` (racemic) had an IC50 of 12.3 µM.
As for `O=C(OC[C@H]1CCC[C@@H](c2cc(F)ccc2F)N1S(=O)(=O)c1ccc(Cl)cc1)N1CCC(N2CCCCC2)CC1` (racemic), 0.01 µM corresponded to half-maximal inhibition (IC50).
Turning to `O=C(OC[C@H]1CCC[C@@H](c2ccc(F)c(F)c2)N1S(=O)(=O)c1ccc(Cl)cc1)N1CCN(C2CCCCC2)CC1` (racemic), the IC50 stood at 0.026 µM.
Take `O=C(OC[C@H]1CCC[C@@H](c2ccccc2)N1S(=O)(=O)c1ccc(Cl)cc1)N1CCN(C2CCCCC2)CC1` (racemic): the IC50 is 0.067 µM.
In the case of `O=C(OC[C@H]1CCC[C@@H](c2ccccc2F)N1S(=O)(=O)c1ccc(Cl)cc1)N1CCC(N2CCCCC2)CC1` (racemic), the IC50 was found to be 0.008 µM.
As to `O=C(OC[C@H]1CCC[C@@H](c2ccccc2)N1S(=O)(=O)c1ccc(Cl)cc1)N1CCC(N2CCCCC2)CC1` (racemic), the IC50 is 0.016 µM.
The molecule `C[C@@H]1CCC[C@@H](COC(=O)NCCCn2ccnc2)N1S(=O)(=O)c1ccc(Cl)cc1` (relative stereo) yielded an IC50 of 6.42 µM.
In the case of `C[C@@H]1CCC[C@H](COC(=O)NCCCn2ccnc2)N1S(=O)(=O)c1ccc(Cl)cc1` (relative stereo), the IC50 amounted to 0.57 µM.
Regarding `C[C@@H]1CCC[C@H](COC(=O)N2CCCC2)N1S(=O)(=O)c1ccc(Cl)cc1` (relative stereo), the IC50 was found to be 1.97 µM.
Under `C[C@@H]1CCC[C@@H](COC(=O)N2CCCC2)N1S(=O)(=O)c1ccc(Cl)cc1` (relative stereo) stands 10.6 µM.
